Measured values taken from patent US11306079B2, “3-(5-amino-pyrazin-2-yl)-benzenesulfonamide derivatives and related compounds as PI3K-gamma kinase inhibitors” (Incyte Corporation, priority 2017, dated 2022).
Structures can show the parent of a compound that is named as a salt.

Experiments:
[1] = target: PI3Kδ (p110δ/p85α) Recombinant Human Protein (Homo sapiens (Human), UniProt O00329); test: PI3Kδ Scintillation Proximity Assay; format: biochemical; conditions: 20 μM PIP2, 2 μM ATP, 3.4 nM PI3Kδ, 120 min, room temperature
Source text: Example C. PI3Kδ Scintillation Proximity Assay
(§1) [γ-^33P]ATP (10 mCi/mL) and Wheat Germ Agglutinin (WGA) YSi SPA Scintillation Beads was purchased from Perkin-Elmer (Waltham, Mass.). Lipid kinase substrate, D-myo-Phosphatidylinositol 4,5-bisphosphate (PtdIns(4,5)P2)D (+)-sn-1,2-di-O-octanoylglyceryl, 3-O-phospho linked (PIP2), CAS 204858-53-7, was purchased from Echelon Biosciences (Salt Lake City, Utah). PI3Kδ (p110δ/p85α) Recombinant Human Protein was purchased from Eurofins (St Charles, Mo.). ATP, MgCl2, DTT, EDTA, MOPS and CHAPS were purchased from Sigma-Aldrich (St. Louis, Mo.).
(§2) The kinase reaction was conducted in polystyrene 384-well Greiner Bio-one white plate from Thermo Fisher Scientific in a final volume of 25 μL. Inhibitors were first diluted serially in DMSO and added to the plate wells before the addition of other reaction components. The final concentration of DMSO in the assay was 2%. The PI3Kδ assay was carried out at room temperature in 20 mM MOPS, pH 6.7, 10 mM MgCl2, 5 mM DTT and CHAPS 0.03%. Reactions were initiated by the addition of ATP, the final reaction mixture consisted of 20 μM PIP2, 2 μM ATP, 0.5 μCi [γ-^33P] ATP, 3.4 nM PI3Kδ. Reactions were incubated for 120 min and terminated by the addition of 40 μL SPA beads suspended in quench buffer: 163 mM potassium phosphate pH 7.8, 20% glycerol, 25 mM EDTA. The final concentration of SPA beads is 1.0 mg/mL. After the plate sealing, plates were shaken overnight at room temperature and centrifuged at 1500 rpm for 10 min, the radioactivity of the product was determined by scintillation counting on Topcount (Perkin-Elmer). IC50 determination was performed by fitting the curve of percent of the solvent control activity versus the log of the inhibitor concentration using the GraphPad Prism 6.0 software.

[2] = tested on: Phosphorylated Ribosomal Protein S6 (RPS6) in THP-1 cells; test: THP-1 RPS6 ELISA Assay; format: cell-based; conditions: Homo sapiens; serum starved THP-1 cells, 2 hours with compound, 10 nM MCP-1 for 15 minutes, Phospho-RPS6 ELISA; read-out: PI3Kγ_THP1_RPS6_ELISA IC50
Description: Example A. THP-1 RPS6 ELISA Assay
To measure the Phosphorylated Ribosomal Protein S6 (RPS6) in cell lysates, THP-1 cells (Human Acute Monocytic Leukemia) are purchased from ATCC (Manassas, Va.) and maintained in RPMI with 10% FBS (Gibco/Life Technologies, Carlsbad, Calif.). For the assay, THP-1 cells are serum starved overnight in RPMI, then plated in RPMI (2×10^5 cells/well in 90 μL) into 96-well flat-bottom tissue culture treated plates (Corning, Corning, N.Y.), in the presence or absence of a concentration range of test compounds. Covered plates are incubated for 2 hours at 37° C., 5% CO2 then treated with or without 10 nM MCP-1 (MYBioSource, San Diego, Calif.) for 15 minutes at 37° C., 5% CO2. Plates are centrifuged at 1600 RPM and supernatants are removed. Cells are lysed in Lysis Buffer (Cell Signaling, Danvers, Mass.) with Protease Inhibitor (Calbiochem/EMD, Germany), PMSF (Sigma, St Louis Mo.), HALTS (Thermo Fisher, Rockford, Ill.) for 30 min on wet ice. Cell lysates are frozen at −80° C. before testing. The lysates are tested in the Human/Mouse/Rat Phospho-RPS6 ELISA (R&D Systems, Inc. Minn, Minn.). The plate is measured using a microplate reader (SpectraMax M5—Molecular Devices, LLC Sunnyvale, Calif.) set to 450 nm with a wavelength correction of 540. IC50 determination is performed by fitting the curve of inhibitor percent inhibition versus the log of the inhibitor concentration using the GraphPad Prism 5.0 software.

[3] = target: PI3Kγ (p110γ) Recombinant Human Protein (Homo sapiens (Human), UniProt P48736); test: PI3K-γ Scintillation Proximity Assay; format: biochemical; conditions: 20 μM PIP2, 2 μM ATP, 13 nM PI3Kγ, 120 min, room temperature
Source text: Example B. PI3K-γ Scintillation Proximity Assay
as §1, with “PI3Kγ (p110γ)” for “PI3Kδ (p110δ/p85α)”, “Life technology (Grand island, NY),” for “Eurofins (St Charles, Mo.).”
as §2, with “PI3Kγ” for “PI3Kδ”, “13” for “3.4”, “PI3Kγ.” for “PI3Kδ.”

Sequence of PI3Kγ (p110γ) Recombinant Human Protein (P48736 whole entry): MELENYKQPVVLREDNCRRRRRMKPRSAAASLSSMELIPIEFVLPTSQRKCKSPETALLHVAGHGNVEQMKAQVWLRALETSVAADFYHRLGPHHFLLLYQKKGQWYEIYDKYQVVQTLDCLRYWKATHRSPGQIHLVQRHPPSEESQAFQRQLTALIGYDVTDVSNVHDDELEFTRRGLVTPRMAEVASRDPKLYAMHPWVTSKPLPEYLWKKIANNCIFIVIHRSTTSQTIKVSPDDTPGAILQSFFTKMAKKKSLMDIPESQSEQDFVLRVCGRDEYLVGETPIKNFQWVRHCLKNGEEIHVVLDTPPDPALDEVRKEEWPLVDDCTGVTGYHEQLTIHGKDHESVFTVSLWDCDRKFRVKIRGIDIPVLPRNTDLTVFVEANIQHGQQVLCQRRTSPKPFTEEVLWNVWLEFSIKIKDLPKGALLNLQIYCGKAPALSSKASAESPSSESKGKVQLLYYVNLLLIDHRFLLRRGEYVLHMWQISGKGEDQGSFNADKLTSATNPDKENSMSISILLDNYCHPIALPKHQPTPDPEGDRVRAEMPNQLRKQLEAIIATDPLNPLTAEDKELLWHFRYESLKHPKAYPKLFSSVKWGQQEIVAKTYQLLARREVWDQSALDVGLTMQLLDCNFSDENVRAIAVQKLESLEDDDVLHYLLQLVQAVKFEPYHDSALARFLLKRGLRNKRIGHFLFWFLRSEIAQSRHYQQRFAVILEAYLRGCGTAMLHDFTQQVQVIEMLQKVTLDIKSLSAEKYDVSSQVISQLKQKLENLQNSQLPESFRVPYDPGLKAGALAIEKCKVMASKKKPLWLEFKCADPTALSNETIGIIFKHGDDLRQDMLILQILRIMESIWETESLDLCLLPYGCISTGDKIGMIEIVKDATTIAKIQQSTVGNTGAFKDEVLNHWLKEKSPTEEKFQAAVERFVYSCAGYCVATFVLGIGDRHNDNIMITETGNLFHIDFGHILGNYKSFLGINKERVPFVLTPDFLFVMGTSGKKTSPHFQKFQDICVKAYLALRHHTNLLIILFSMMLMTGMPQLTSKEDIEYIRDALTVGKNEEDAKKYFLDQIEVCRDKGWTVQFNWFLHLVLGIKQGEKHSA
Sequence of PI3Kδ (p110δ/p85α) Recombinant Human Protein (O00329 whole entry): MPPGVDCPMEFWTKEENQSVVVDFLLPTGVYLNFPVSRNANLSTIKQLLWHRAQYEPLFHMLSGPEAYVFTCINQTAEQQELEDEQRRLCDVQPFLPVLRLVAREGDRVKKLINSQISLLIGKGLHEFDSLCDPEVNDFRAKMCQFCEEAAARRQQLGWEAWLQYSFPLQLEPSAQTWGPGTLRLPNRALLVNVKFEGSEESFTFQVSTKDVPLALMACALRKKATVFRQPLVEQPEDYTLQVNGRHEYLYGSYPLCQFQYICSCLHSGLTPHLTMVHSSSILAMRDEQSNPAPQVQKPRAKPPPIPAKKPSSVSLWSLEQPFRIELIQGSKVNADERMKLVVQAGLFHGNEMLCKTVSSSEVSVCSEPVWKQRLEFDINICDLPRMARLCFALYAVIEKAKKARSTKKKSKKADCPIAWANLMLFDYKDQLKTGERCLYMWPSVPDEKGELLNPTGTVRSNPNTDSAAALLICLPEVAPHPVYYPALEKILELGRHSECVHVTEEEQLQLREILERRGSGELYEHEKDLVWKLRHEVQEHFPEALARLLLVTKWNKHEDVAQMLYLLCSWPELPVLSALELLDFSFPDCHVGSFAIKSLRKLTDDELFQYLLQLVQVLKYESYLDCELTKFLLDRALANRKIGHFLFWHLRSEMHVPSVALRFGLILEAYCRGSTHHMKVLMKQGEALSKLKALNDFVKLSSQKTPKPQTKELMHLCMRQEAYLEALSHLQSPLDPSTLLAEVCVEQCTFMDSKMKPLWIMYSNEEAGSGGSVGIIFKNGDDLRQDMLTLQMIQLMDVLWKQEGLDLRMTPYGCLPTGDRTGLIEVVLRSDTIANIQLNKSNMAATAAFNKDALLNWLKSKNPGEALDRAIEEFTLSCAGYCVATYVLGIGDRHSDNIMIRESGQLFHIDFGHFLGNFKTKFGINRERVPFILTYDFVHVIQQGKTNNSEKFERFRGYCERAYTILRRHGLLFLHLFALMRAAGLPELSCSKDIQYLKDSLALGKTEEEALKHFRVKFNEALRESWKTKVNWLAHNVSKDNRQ
Sequence of PI3Kδ (p110δ/p85α) Recombinant Human Protein (P27986 whole entry partner): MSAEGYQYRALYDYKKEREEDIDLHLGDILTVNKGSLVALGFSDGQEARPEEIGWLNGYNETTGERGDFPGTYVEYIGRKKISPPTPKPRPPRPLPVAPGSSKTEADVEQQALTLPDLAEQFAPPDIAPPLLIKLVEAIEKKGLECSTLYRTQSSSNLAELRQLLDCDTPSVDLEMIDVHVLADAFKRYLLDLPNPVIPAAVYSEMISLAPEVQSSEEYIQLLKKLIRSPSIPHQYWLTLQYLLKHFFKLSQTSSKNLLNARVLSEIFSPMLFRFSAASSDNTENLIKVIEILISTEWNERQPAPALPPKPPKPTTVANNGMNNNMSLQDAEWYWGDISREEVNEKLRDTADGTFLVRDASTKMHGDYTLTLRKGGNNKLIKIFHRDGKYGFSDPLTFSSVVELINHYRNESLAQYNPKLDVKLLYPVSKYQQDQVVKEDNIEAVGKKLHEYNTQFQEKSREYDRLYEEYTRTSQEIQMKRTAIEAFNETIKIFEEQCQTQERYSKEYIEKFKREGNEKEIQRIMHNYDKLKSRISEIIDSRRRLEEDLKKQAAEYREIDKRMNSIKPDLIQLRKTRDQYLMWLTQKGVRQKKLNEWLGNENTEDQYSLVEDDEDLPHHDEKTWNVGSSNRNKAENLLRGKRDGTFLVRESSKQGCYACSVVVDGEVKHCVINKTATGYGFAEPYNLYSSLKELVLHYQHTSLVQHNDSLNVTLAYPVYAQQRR

| Compound | IC50 [1] [nM] | IC50 [2] [nM] | IC50 [3] [nM] |
| --- | --- | --- | --- |
| Cc1ccc(S(=O)(=O)NC23CCC(CO)(CC2)OC3)cc1-c1cnc(N)c(-c2ccnc(C#N)c2)n1 [Example 19, 3-(5-Amino-6-(2-cyanopyridin-4-yl)pyrazin-2-yl)-N-(1-(hydroxymethyl)-2-oxabicyclo[2.2.2]octan-4-yl)-4-methylbenzenesulfonamide trifluoroacetate salt] | ≤ 100 | ≤ 1000 | ≤ 100 |
| Cc1ccc(S(=O)(=O)NC23CCC(CO)(CC2)OC3)cc1-c1cnc(N)c(-c2ccncc2F)n1 [Example 20, 3-(5-Amino-6-(3-fluoropyridin-4-yl)pyrazin-2-yl)-N-(1-(hydroxymethyl)-2-oxabicyclo[2.2.2]octan-4-yl)-4-methylbenzenesulfonamide trifluoroacetate salt] | ≤ 500 | ≤ 500 | ≤ 100 |
| Cc1ccc(S(=O)(=O)NC23CCC(CO)(CC2)OC3)cc1-c1cnc(N)c(-c2ccnc(C(F)(F)F)c2)n1 [Example 21, 3-(5-Amino-6-(2-(trifluoromethyl)pyridin-4-yl)pyrazin-2-yl)-N-(1-(hydroxymethyl)-2-oxabicyclo[2.2.2]octan-4-yl)-4-methylbenzenesulfonamide trifluoroacetate salt] | ≤ 500 | ≤ 500 | ≤ 100 |
| Cc1ccc(S(=O)(=O)NC23CC(C#N)(C2)C3)cc1-c1cnc(N)c(-n2cncn2)n1 [Example 23, 3-(5-Amino-6-(1H-1,2,4-triazol-1-yl)pyrazin-2-yl)-N-(3-cyanobicyclo[1.1.1]pentan-1-yl)-4-methylbenzenesulfonamide Trifluoroacetate Salt] | ≤ 100 | ≤ 500 | ≤ 100 |
| Cc1ccc(S(=O)(=O)NC23CC(CO)(C2)C3)cc1-c1cnc(N)c(-n2cncn2)n1 [Example 24, 3-(5-Amino-6-(1H-1,2,4-triazol-1-yl)pyrazin-2-yl)-N-(3-(hydroxymethyl)bicyclo[1.1.1]pentan-1-yl)-4-methylbenzenesulfonamide trifluoroacetate salt] | ≤ 500 | ≤ 100 | ≤ 100 |
| Cc1ccc(S(=O)(=O)NC23CCC(CO)(C2)C3)cc1-c1cnc(N)c(-n2cncn2)n1 [Example 25, 3-(5-Amino-6-(1H-1,2,4-triazol-1-yl)pyrazin-2-yl)-N-(4-(hydroxymethyl)bicyclo[2.1.1]hexan-1-yl)-4-methylbenzenesulfonamide trifluoroacetate salt] | ≤ 100 | ≤ 100 | ≤ 100 |
| Cc1ccc(S(=O)(=O)NC23CCC(O)(CC2)C3)cc1-c1cnc(N)c(-n2cncn2)n1 [Example 26, 3-(5-Amino-6-(1H-1,2,4-triazol-1-yl)pyrazin-2-yl)-N-(4-hydroxybicyclo[2.2.1]heptan-1-yl)-4-methylbenzenesulfonamide trifluoroacetate salt] | ≤ 100 | ≤ 100 | ≤ 100 |
| Cc1ccc(S(=O)(=O)NC23COC(CO)(C2)C3)cc1-c1cnc(N)c(-n2cncn2)n1 [Example 27, 3-(5-Amino-6-(1H-1,2,4-triazol-1-yl)pyrazin-2-yl)-N-(1-(hydroxymethyl)-2-oxabicyclo[2.1.1]hexan-4-yl)-4-methylbenzenesulfonamide trifluoroacetate salt] | ≤ 500 | ≤ 500 | ≤ 100 |
| Cc1ccc(S(=O)(=O)NC23CCC(C#N)(C2)C3)cc1-c1cnc(N)c(-n2cncn2)n1 [Example 28, 3-(5-Amino-6-(1H-1,2,4-triazol-1-yl)pyrazin-2-yl)-N-(4-cyanobicyclo[2.1.1]hexan-1-yl)-4-methylbenzenesulfonamide trifluoroacetate salt] | ≤ 500 | ≤ 100 | ≤ 100 |
| Cc1ccc(S(=O)(=O)NC23CC(C(C)(C)O)(C2)C3)cc1-c1cnc(N)c(-n2cncn2)n1 [Example 29, 3-(5-Amino-6-(1H-1,2,4-triazol-1-yl)pyrazin-2-yl)-N-(3-(2-hydroxypropan-2-yl)bicyclo[1.1.1]pentan-1-yl)-4-methylbenzenesulfonamide trifluoroacetate salt] | ≤ 500 | ≤ 500 | ≤ 100 |
| Cc1ccc(S(=O)(=O)NC23CCC(O)(C2)C3)cc1-c1cnc(N)c(-n2cncn2)n1 [Example 30, 3-(5-Amino-6-(1H-1,2,4-triazol-1-yl)pyrazin-2-yl)-N-(4-hydroxybicyclo[2.1.1]hexan-1-yl)-4-methylbenzenesulfonamide Trifluoroacetate Salt] | ≤ 500 | ≤ 500 | ≤ 100 |
| CNC(=O)OCC12CC(NS(=O)(=O)c3ccc(C)c(-c4cnc(N)c(-n5cncn5)n4)c3)(C1)C2 [Example 31, (3-(3-(5-Amino-6-(1H-1,2,4-triazol-1-yl)pyrazin-2-yl)-4-methylphenylsulfonamido)bicyclo[1.1.1]pentan-1-yl)methyl Methylcarbamate Trifluoroacetate Salt] | ≤ 500 | ≤ 500 | ≤ 100 |
| Cc1ccc(S(=O)(=O)NC23CC(C(=O)N4CCC4)(C2)C3)cc1-c1cnc(N)c(-n2cncn2)n1 [Example 34, 3-(5-Amino-6-(1H-1,2,4-triazol-1-yl)pyrazin-2-yl)-N-(3-(azetidine-1-carbonyl)bicyclo[1.1.1]pentan-1-yl)-4-methylbenzenesulfonamide trifluoroacetate salt] | ≤ 500 | ≥ 1000 | ≤ 100 |
| Cc1ccc(S(=O)(=O)NC23CC(C(=O)NCC(F)(F)F)(C2)C3)cc1-c1cnc(N)c(-n2cncn2)n1 [Example 35, 3-(3-(5-Amino-6-(1H-1,2,4-triazol-1-yl)pyrazin-2-yl)-4-methylphenylsulfonamido)-N-(2,2,2-trifluoroethyl)bicyclo[1.1.1]pentane-1-carboxamide trifluoroacetate salt] | ≤ 500 | ≤ 1000 | ≤ 100 |
